Data from US20220204491A1, “FXR (NR1H4) MODULATING COMPOUNDS” (Gilead Sciences, Inc., priority 2019, published 2022).
Where two headings read alike, the source gives them in different places.

Experiments:
Farnesoid X receptor = assay: In vivo pharmacodynamics in cynomolgus monkey: plasma FGF19 after oral versus IV dosing; conditions: for FGF19 levels compared to baseline: IV administration; for FGF19 levels compared to baseline / plasma FGF19 over the dosing interval compared to baseline: cynomolgus monkey; for FGF19 AUClast: male cynomolgus monkey, plasma, 24 hour period; for Ratio AUClast to FG19/GS: FGF19 AUClast over drug AUClast; for PO/IV: PO ratio (FGF19/GS AUClast) over IV ratio; for plasma FGF19 over the dosing interval compared to baseline: oral administration
Method: In vivo pharmacodynamics of Formula (I) of Example 1, Comparative Example 1, and Comparative Example 2 were determined as follows.
(§1) Oral solution doses of Formula (I) (Example 1) were formulated at concentrations of 1 mg/mL in aqueous suspensions of 1% sodium laurel sulfate (SLS), 1% ethanol, and 98% water at pH 2. Oral suspension doses of Comparative Example 1, and Comparative Example 2 were formulated at concentrations of 2.5 mg/mL in 1% hydyroxypropyl methylcellulose (HPMC), 0.5% Tween 80, and 98.5% water.
(§2) Intravenous doses of compounds of Formula (I) (Example 1), Comparative Example 1, and Comparative Example 2 were formulated at concentrations of 0.5 mg/mL in a vehicle including 5% DMSO, 15% NMP, 60% PEG 300 and water with 1.1 equivalents of NaOH.
(§3) Each dosing group consisted of three to six male Cynomolgus monkeys. At dosing, the animals weighed between 2.4 and 4.4 kg.
(§4) The oral test articles were administered to the monkeys via oral gavage at 2 mL/kg or nasogastric untubation at 5 mL/kg for a dose of 5 mg/kg. The intravenous test articles were administered as an approximately 30-minute infusion via an indwelling catheter in a saphenous or cephalic vein at approximately 2 mL/kg for a dose of 1 mg/kg.
(§5) Venous blood samples were taken at specified time points after dosing from each animal. The blood samples were collected and transferred into tubes containing potassium (K2) EDTA anticoagulant.
The FGF19 ELISA assay kit from BioVendor (product number RD191107200R) was used to determine FGF19 concentrations in the collected blood samples.
(§6) Activation of the Farnesoid X receptor in the distal small intestine as well as systemically in organs such as the liver, directly causes the expression and secretion of FGF19. Plasma FGF levels were evaluated as a pharmacodynamics marker of FXR activation in male cynomolgus monkeys following administration of oral and intravenous administration of doses of Example 1, Comparative Example 1, or Comparative Example 2. The difference between levels of FGF19 following oral administration (PO) versus intravenous administration (IV) were used to compare the degree of intestinal FXR agonism (via analysis of PO data) and systemic FXR agonism (via analysis of IV data) for each compound administered. Plasma levels of drug and FGF19 were measured at various time points over a 24 hour period to generate pharmacokinetic and pharmacodynamics curves.

[1] = Drug concentration in plasma of cynomolgus monkey (LC/MS/MS); type: in vivo; conditions: male cynomolgus monkey, read-out: GS-AUClast
Method: as §1, §2, §3, §4, §5
For analysis on an API 5000 LC/MS/MS system, an aliquot of 50 μL of each plasma sample was treated with 200 μL of acetonitrile (ACN) containing internal standard. The above solution was centrifuged at 5000 RPM for 10 minutes and 50 μL of supernatant was transferred to a clean 96-well plate, followed by the addition of 200 μL of water. An aliquot of 10 μL was injected to the API 5000 LC/MS/MS system.
For analysis on an Applied Biosystems API 5500 LC/MS/MS system, an aliquot of 20 μL of each plasma sample was treated with 120 μL acetonitrile (ACN) containing internal standard. The above solution was centrifuged and 100 μL of supernatant was transferred to a clean 96-well plate, followed by the addition of 100 μL of water. An aliquot of 7-10 μL was injected to the API 5500 LC/MS/MS system.
A Zorbax Extend C18 HPLC column (50×2.1 mm, 3.5 μm) from Agilent Technologies (Part #735700-902) (Comparative Example 1, and Comparative Example 2) or a Waters BEH C18 column (50×2.1 mm, 1.7 μm) (Example 1) was used. For the Zorbax Extend C18 HPLC column, mobile phase A contained an aqueous solution of 1% acetonitrile in 10 mM ammonium formate adjusted to pH 3.0 with formic acid and mobile phase B contained and 10% 10 mM ammonium formate in acetonitrile adjusted to pH 4.6 with formic acid. For the Waters BEH C18 column, mobile phase A contained 95% water, 5% acetonitrile, and 0.1% formic acid and mobile phase B contained 50% methanol, 50% acetonitrile, and 0.1% formic acid. A Thermo Aria multiplexer with two identical Agilent 1200 series binary pumps (P/N G1312A Bin Pump) was used for elution and separation. The elution programs used are set forth in the following Table 2 for the Zorbax Extend C18 HPLC and Table 3 for the Waters BEH C18 column.
An API 5000 triple quadrupole mass spectrometer from AB Sciex, Foster City, Calif. was used in multiple reaction monitoring mode to quantify the compounds.
as §6, with “Plasma levels of drug and FGF19 were measured at various time points over a 24 hour period to generate pharmacokinetic and pharmacodynamics curves.” left out

| Structure (SMILES) | FGF19 levels compared to baseline (Farnesoid X receptor; 1 mg/kg) | FGF19 AUClast (Farnesoid X receptor; IV infusion, 1 mg/kg) [pg·h/mL] | Ratio AUClast to FG19/GS (Farnesoid X receptor; IV, 1 mg/kg) | PO/IV (Farnesoid X receptor) | FGF19 AUClast (Farnesoid X receptor; PO, 5 mg/kg) [pg·h/mL] | Ratio AUClast to FG19/GS (Farnesoid X receptor; PO, 5 mg/kg) | plasma FGF19 over the dosing interval compared to baseline (Farnesoid X receptor; 5 mg/kg) | AUC(0-t) ([1]; IV infusion, 1 mg/kg) [µM·h] | AUC(0-t) ([1]; PO, 5 mg/kg) [µM·h] |
| --- | --- | --- | --- | --- | --- | --- | --- | --- | --- |
| O=C(O)c1cnc(N2CC(O)(c3ccc(OCc4c(-c5c(Cl)cc(F)cc5Cl)noc4C4CC4)cc3Cl)C2)c(F)c1 [Comparative Example 1, 6-(3-(2-chloro-4-((5-cyclopropyl-3-(2,6-dichloro-4-fluorophenyl)isoxazol-4-yl)methoxy)phenyl)-3-hydroxyazetidin-1-yl)-5-fluoronicotinic acid] | increased FGF19 levels | 22798 ± 2387 | 14 | 1.37 | 32085 ± 4252 | 19.2 | caused increases in plasma FGF19 | 1.63 | 1.67 |
| O=C(O)c1ccc(N2CC(O)(c3ccc(OCc4c(-c5c(Cl)cccc5Cl)noc4C4CC4)cc3Cl)C2)nc1 [Comparative Example 2] | increased FGF19 levels | 10757 ± 2551 | 3.4 | 8.2 | 18193 ± 7134 | 28 | caused increases in plasma FGF19 | 3.14 | 0.643 |
| O=C(O)c1ccc(N2CC(O)(c3ccc(OCc4c(-c5c(Cl)cc(F)cc5Cl)noc4C4CC4)cc3Cl)C2)nc1 [Example 1, 6-(3-(2-chloro-4-((5-cyclopropyl-3-(2,6-dichloro-4-fluorophenyl)isoxazol-4-yl)methoxy)phenyl)-3-hydroxyazetidin-1-yl)nicotinic acid] | did not cause in increase in FGF19 | 5144 ± 2199 | 1.6 | 7.8 | 28153 ± 11539 | 12.5 | caused increases in plasma FGF19 | 3.15 | 2.25 |
